Assay results from US8957049B2, “Inhibitors of fatty acid amide hydrolase” (Infinity Pharmaceuticals, Inc., priority 2008, dated 2015).
pKi: −log10 of the molar value.

Each compound was assayed against T1, human FAAH (Homo sapiens, UniProt O00519) (assay: Human FAAH biochemical inhibition assay (AMC arachidonoyl amide fluorescence)). Settings: class given in each Example, read-out: Activity (Ki, inhibition of human FAAH).
T1 construct: host or cells: COS-7 cells, transient transfection (FuGENE 6); 13,000 g membrane fraction solubilised in 1% Triton X-100
T1 sequence (O00519 1-579): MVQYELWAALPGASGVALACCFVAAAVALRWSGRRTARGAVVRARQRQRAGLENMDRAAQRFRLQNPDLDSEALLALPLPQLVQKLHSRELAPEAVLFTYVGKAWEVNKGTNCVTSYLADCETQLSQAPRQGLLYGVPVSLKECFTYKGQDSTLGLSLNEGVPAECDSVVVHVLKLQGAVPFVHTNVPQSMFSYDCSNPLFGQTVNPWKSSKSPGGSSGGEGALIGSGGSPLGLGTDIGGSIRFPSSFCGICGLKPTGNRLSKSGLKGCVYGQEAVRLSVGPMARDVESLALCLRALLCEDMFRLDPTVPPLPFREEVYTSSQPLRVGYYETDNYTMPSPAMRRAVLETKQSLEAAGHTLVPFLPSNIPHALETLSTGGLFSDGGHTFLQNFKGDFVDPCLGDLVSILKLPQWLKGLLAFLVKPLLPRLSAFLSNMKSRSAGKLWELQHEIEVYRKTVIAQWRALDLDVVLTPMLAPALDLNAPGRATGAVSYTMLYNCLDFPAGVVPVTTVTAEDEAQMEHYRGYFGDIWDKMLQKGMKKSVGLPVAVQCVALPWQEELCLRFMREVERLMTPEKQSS
Procedure: Exemplary compounds are set forth in the Examples provided below. Compounds were assayed as inhibitors of human FAAH using the method described in detail in Example 286.
The following assays may be used to determine the inhibition of FAAH by the compounds of the present invention: (1) a fluorescence-based assay for fatty acid amide hydrolase compatible with high-throughput screening as described in Manjunath et al., Analytical Biochemistry (2005) 343:143-151; and (2) a high-throughput screening for the discovery of inhibitors of fatty acid amide hydrolase using a microsome-based fluorescent assay. Wang et al., Biomolecular Screening (2006) 1-9.
COS-7 cells were split the day before, 1:5 into 150 mm×25 mm cell culture dishes (Corning Inc., Cat. No. 430599). Transient transfection took place at 30-40% confluency according to FuGENE 6 Transfection Reagent (Roche, Cat. No. 11814 443 001).
The FuGENE transfection 6 reagent (45 uL) was added to 1410 μL of media (DMEM, serum free without pen/strep) in a 15 mL conical tube and incubated at room temp for 5 minutes, followed by the addition of FAAH plasmid DNA (15 μg) (OriGene Cat. No. TC119221, Genbank Accession No. NM_001441.1, 0.67 ug/uL) and a further incubation of 15 minutes at room temperature. The resulting solution was added into one dish of 30-40% confluent COS-7 cells in a drop-wise manner. The COS-7 cell dish was subsequently incubated for 48 hours. The cells are then harvested.
Media was aspirated from the dishes and the cells rinsed with 10 mL PBS. The PBS was removed and 3 mL of PBS added to the dish. The dish was scraped to resuspend the cells, and the subsequent cell suspension collected into a 15 mL conical tube. The cells were pelleted by centrifugation at 1200 rpm for 5 minutes in a bench top centrifuge. PBS was removed and the cell pellet snap frozen in liquid nitrogen and stored at −80° C.
COS-7 Cells—FAAH Purification: • (1) Fractionation: Frozen cell pellets from transient transfections were thawed on ice and resuspended in 12.5 mM Hepes pH 8.0, 100 mM NaCl, 1 mM EDTA (10 mL/0.2 g cell pellet). The pellets were dounce homogenized and then sonicated to produce cell extract. The cell extract was subsequently centrifuged at 1000 g to remove cellular debris. The pellet was discarded and the supernatant centrifuged at 13,000 g for 20 minutes. The pellet contained membrane bound FAAH. The supernatant was discarded and the pellet resolubilized. • (2) Re-solubilization: The fraction of interest, (13,000 g, membrane fraction) was re-suspended in 2.3 mL re-suspension buffer (20 mM Hepes pH 7.8, 10% v/v Glycerol, 1 mM EDTA, 1% Triton X-100) and the sample incubated on ice for 1 hour and then centrifuged to remove any particulate matter. The supernatant containing solubilized human FAAH was aliquoted and snap frozen in liquid nitrogen and stored at −80° C. until use. • (3) Characterization: Protein Concentration determined by Bradford assay. • SDS gel and Western blot to confirm presence of FAAH • FAAH activity assay • Km determination—96-well assay • Linear dependence—96-well assay • Standard compound Ki determination—384-well assay
Rat FAAH biochemical assays were carried out in a 96 well flat bottom black non-treated polystyrene plates (Corning Costar Catalogue #3915). FAAH reaction buffer: 50 mM Hepes (pH 7.5), 1 mM EDTA, 0.2% Triton X-100. FAAH substrate—AMC Arachidonoyl Amide (Cayman Chemicals Company, Catalog #10005098). The reaction was read in an Envision microtiter plate reader [Excitation filter 355 nm (40 nm bandpass); Emmision filter 460 nm (25 nm bandpass)]. The raw fluorescence was plotted on the y axis and the inhibitor concentration on the x axis to give a dose response inhibition curve. The data was fitted to a single site competitive inhibition equation, fixing the Km for the rat and human enzyme to 12 μM and 9 μM respectively. […]

| pKi | Compound |
| --- | --- |
| 7.00 to 8.00 | COC(=O)C1CC(Cc2ccccc2)ON1Cc1ccc(B(O)O)c(F)c1 (centres unmarked) [Compound 148] |
| < 6.00 | OB(O)c1cccc2cccc(COc3cccc(F)c3)c12 [Compound 151] |
| ≥ 8.00 | OB(O)c1ccc(C2CC(c3ccccc3)=NO2)cc1 (centres unmarked) [Compound 152] |
| ≥ 8.00 | OB(O)c1ccc(-c2cc(-c3ccccc3)no2)cc1 [Compound 156] |
| ≥ 8.00 | OB(O)c1ccc(C2=NOC(c3ccccc3)C2)cc1 (centres unmarked) [Compound 159] |
| ≥ 8.00 | OB(O)c1ccc(-c2cc(-c3ccccc3)on2)cc1 [Compound 160] |
| ≥ 8.00 | CCCCCC1CC(c2ccc(B(O)O)cc2)=NO1 (centres unmarked) [Compound 161] |
| ≥ 8.00 | CCCCCC1(C)CC(c2ccc(B(O)O)cc2)=NO1 (centres unmarked) [Compound 162] |
| 6.00 to 7.00 | CCCC1(c2ccccc2)CC(c2ccc(B(O)O)cc2)=NO1 (centres unmarked) [Compound 163] |
| 6.00 to 7.00 | CCCCCC1(CCCCC)CC(c2ccc(B(O)O)cc2)=NO1 [Compound 164] |
| 7.00 to 8.00 | OB(O)c1ccc(C2=NOC(c3cccnc3)C2)cc1 (centres unmarked) [Compound 165] |
| ≥ 8.00 | OB(O)c1ccc(-c2cc(-c3cccnc3)on2)cc1 [Compound 166] |
| 7.00 to 8.00 | CCCC1CC(c2ccccc2B(O)O)=NO1 (centres unmarked) [Compound 167] |
| < 6.00 | CCCc1cc(-c2ccccc2B(O)O)no1 [Compound 168] |
| ≥ 8.00 | OB(O)c1ccc([C@H]2OC[C@H](c3ccccc3)CO2)cc1F [Compound 173] |
| ≥ 8.00 | OB(O)c1ccc([C@H]2OC[C@@H](c3ccccc3)CO2)cc1F [Compound 174] |
| ≥ 8.00 | OB(O)c1ccc([C@H]2OC[C@H](c3ccccc3)CO2)cc1 [Compound 175] |
| ≥ 8.00 | OB(O)c1ccc([C@H]2OC[C@H](c3ccccc3)O2)cc1 [Compound 179] |
| ≥ 8.00 | OB(O)c1ccc([C@@H]2OC[C@H](c3ccccc3)O2)cc1 [Compound 180] |
| ≥ 8.00 | OB(O)c1ccc([C@@H]2OC[C@@H](c3ccccc3)O2)cc1 [Compound 181] |
| ≥ 8.00 | OB(O)c1ccc([C@H]2OC[C@@H](c3ccccc3)O2)cc1 [Compound 182] |
| 7.00 to 8.00 | CC/C=C/c1cc(OCCc2ccccc2)ccc1B(O)O [Compound 183] |
| 6.00 to 7.00 | OB(O)c1ccc(OCCc2ccccc2)cc1/C=C/CCc1ccccc1 [Compound 184] |

| pKi | Compound |
| --- | --- |
| ≥ 8.00 | OB(O)c1ccc2cc(Oc3ccccn3)ccc2c1 [Compound 185] |
| ≥ 8.00 | OB(O)c1ccc2cc(Oc3cnccn3)ccc2c1 [Compound 186] |
| ≥ 8.00 | OB(O)c1ccc2nc(Oc3ccccc3)ccc2c1 [Compound 187] |
| ≥ 8.00 | OB(O)c1ccc2ccc(Oc3ccccc3)nc2c1 [Compound 188] |
| ≥ 8.00 | COc1cccc(Oc2ccc3cc(B(O)O)ccc3n2)c1 [Compound 189] |
| ≥ 8.00 | OB(O)c1ccc2nc(OC3CCCC3)ccc2c1 [Compound 190] |
| ≥ 8.00 | CCCCOc1ccc2cc(B(O)O)ccc2n1 [Compound 191] |
| 7.00 to 8.00 | OB(O)c1ccc2nc(OC3CCCCC3)ccc2c1 [Compound 192] |
| ≥ 8.00 | OB(O)c1ccc2nc(OCc3ccccc3)ccc2c1 [Compound 193] |
| ≥ 8.00 | CN(C)c1cccc(Oc2ccc3cc(B(O)O)ccc3n2)c1 [Compound 194] |
| ≥ 8.00 | O=[N+]([O-])c1cccc(Oc2ccc3cc(B(O)O)ccc3n2)c1 [Compound 195] |
| ≥ 8.00 | OB(O)c1ccc2nc(Oc3ccccc3Cl)ccc2c1 [Compound 196] |
| ≥ 8.00 | OB(O)c1ccc2nc(Oc3cccc(Cl)c3)ccc2c1 [Compound 197] |
| ≥ 8.00 | N#Cc1cccc(Oc2ccc3cc(B(O)O)ccc3n2)c1 [Compound 198] |
| ≥ 8.00 | OB(O)c1ccc2nc(Oc3ccccc3O)ccc2c1 [Compound 199] |
| ≥ 8.00 | COc1ccccc1Oc1ccc2cc(B(O)O)ccc2n1 [Compound 200] |
| ≥ 8.00 | OB(O)c1ccc2nc(Oc3ccc(Cl)cc3)ccc2c1 [Compound 201] |
| 7.00 to 8.00 | COc1ccc2cc(B(O)O)ccc2n1 [Compound 202] |
| 7.00 to 8.00 | CCOc1ccc2cc(B(O)O)ccc2n1 [Compound 203] |
| ≥ 8.00 | CN(Cc1ccccc1)c1ccc2cc(B(O)O)ccc2n1 [Compound 204] |
| 7.00 to 8.00 | CN(c1ccccc1)c1ccc2cc(B(O)O)ccc2n1 [Compound 205] |
| ≥ 8.00 | OB(O)c1ccc2nc(Nc3ccccc3)ccc2c1 [Compound 206] |
| 7.00 to 8.00 | OB(O)c1ccc2nc(N3CCCc4ccccc43)ccc2c1 [Compound 207] |

| pKi | Compound |
| --- | --- |
| ≥ 8.00 | OB(O)c1ccc2cc(Oc3ncccn3)ccc2c1 [Compound 208] |
| ≥ 8.00 | OB(O)c1ccc2nc(Oc3cccnc3)ccc2c1 [Compound 209] |
| ≥ 8.00 | Cc1cc2cc(B(O)O)ccc2nc1Oc1ccccc1 [Compound 210] |
| 7.00 to 8.00 | OB(O)c1ccc2nc(Oc3ccccc3)cnc2c1 [Compound 211] |
| 7.00 to 8.00 | Cc1cc(Oc2ccccc2)nc2c(C)cc(B(O)O)cc12 [Compound 212] |
| ≥ 8.00 | Cc1cc(Oc2ccccc2)nc2ccc(B(O)O)cc12 [Compound 213] |
| ≥ 8.00 | OB(O)c1ccc2nc(Oc3ccccc3)sc2c1 [Compound 214] |
| ≥ 8.00 | OB(O)c1ccc2nc(Oc3ccccn3)ccc2c1 [Compound 215] |
| ≥ 8.00 | OB(O)c1ccc2cc(Oc3ccccc3)ccc2c1 [Compound 216] |
| ≥ 8.00 | OB(O)c1ccc2cn(Cc3ccccc3)nc2c1 [Compound 217] |
| 7.00 to 8.00 | OB(O)c1ccc(-c2cccc(-c3ccccc3)c2)cc1 [Compound 219] |
| 6.00 to 7.00 | CC(C)Cn1cc(B(O)O)cn1 [Compound 220] |
| 7.00 to 8.00 | OB(O)c1ccc2nc(COc3ccccc3)ccc2c1 [Compound 221] |
| ≥ 8.00 | CC(C)CCn1cc(-c2ccc(B(O)O)cc2)cn1 [Compound 222] |
| 7.00 to 8.00 | Cc1nc(-c2ccccc2)sc1-c1ccc(B(O)O)c(F)c1 [Compound 225] |
| ≥ 8.00 | OB(O)c1ccc(-c2cnn(Cc3ccccc3)c2)cc1F [Compound 226] |
| ≥ 8.00 | OB(O)c1ccc(-c2cnn(Cc3ccccc3)c2)cc1 [Compound 227] |
| 7.00 to 8.00 | COc1ccc2cc(-c3ccc(B(O)O)cc3)ccc2c1 [Compound 228] |
| 7.00 to 8.00 | OB(O)c1ccc(-c2cccc3ncccc23)cc1F [Compound 229] |
| 7.00 to 8.00 | OB(O)c1ccc(-c2cccc3[nH]ccc23)cc1F [Compound 230] |
| ≥ 8.00 | OB(O)c1ccc(-n2cc(-c3ccccc3)cn2)cc1 [Compound 231] |
| ≥ 8.00 | OB(O)c1ccc(-c2cnn(-c3ccccc3)c2)cc1 [Compound 232] |
